Data: patent US11739098B2 (BRISTOL-MYERS SQUIBB COMPANY, priority 2017, dated 2023)
pIC50: −log10 of the molar value.

How the values were obtained:
Assay type in all cases: cell-based
human TLR9 = target: T1, human TLR9 (Homo sapiens, UniProt Q9NR96); test: TLR9 inhibition reporter assay (HEK-Blue cells, SEAP reporter, ODN2006 stimulation); details: HEK-Blue cells overexpressing human TLR9, SEAP reporter, ODN2006 5 nM
T1 construct: host or cells: HEK-Blue cells (HEK293-derived reporter line)
T1 sequence (Q9NR96 26-1032): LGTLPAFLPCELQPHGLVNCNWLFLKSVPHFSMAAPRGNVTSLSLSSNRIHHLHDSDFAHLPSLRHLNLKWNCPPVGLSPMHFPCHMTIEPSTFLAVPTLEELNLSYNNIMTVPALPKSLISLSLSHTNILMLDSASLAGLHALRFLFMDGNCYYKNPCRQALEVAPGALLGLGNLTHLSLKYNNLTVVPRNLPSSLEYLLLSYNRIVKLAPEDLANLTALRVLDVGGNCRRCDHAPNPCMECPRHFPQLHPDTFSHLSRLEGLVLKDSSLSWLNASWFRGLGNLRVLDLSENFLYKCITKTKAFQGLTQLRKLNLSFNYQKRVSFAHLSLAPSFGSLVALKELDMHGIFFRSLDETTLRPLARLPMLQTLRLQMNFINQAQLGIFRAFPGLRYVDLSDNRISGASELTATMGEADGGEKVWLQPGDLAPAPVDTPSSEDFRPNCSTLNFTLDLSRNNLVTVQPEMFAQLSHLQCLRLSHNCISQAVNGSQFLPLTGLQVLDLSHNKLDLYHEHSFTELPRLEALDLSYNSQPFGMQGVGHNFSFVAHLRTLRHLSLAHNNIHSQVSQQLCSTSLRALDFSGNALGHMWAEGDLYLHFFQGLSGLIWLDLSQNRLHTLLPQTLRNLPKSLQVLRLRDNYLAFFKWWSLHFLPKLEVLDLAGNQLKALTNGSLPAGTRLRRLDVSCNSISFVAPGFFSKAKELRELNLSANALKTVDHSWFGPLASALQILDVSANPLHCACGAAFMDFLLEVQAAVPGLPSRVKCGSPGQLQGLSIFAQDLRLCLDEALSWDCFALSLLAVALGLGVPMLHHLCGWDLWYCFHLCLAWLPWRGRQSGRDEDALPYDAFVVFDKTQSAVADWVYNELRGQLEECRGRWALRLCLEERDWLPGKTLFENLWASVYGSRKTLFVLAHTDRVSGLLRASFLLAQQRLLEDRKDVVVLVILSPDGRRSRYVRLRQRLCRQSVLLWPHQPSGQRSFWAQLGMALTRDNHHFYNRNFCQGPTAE
Method in brief: (§1)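 Read-out is SEAP activity in HEK-Blue detection medium after 22 h at 37 °C, converted to percent inhibition against agonist-plus-DMSO and reference-inhibitor controls. Cells saw compound (0.05 nM–50 μM, 30 min, room temperature) before gardiquimod 7.5 μM, R848 15.9 μM or ODN2006 5 nM for TLR7, TLR8 and TLR9, respectively.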

human TLR8 = target: T2, human TLR8 (Homo sapiens, UniProt Q9NR97); test: TLR8 inhibition reporter assay (HEK-Blue cells, SEAP reporter, R848 stimulation); details: HEK-Blue cells overexpressing human TLR8, SEAP reporter, R848 15.9 μM
T2 construct: host or cells: HEK-Blue cells (HEK293-derived reporter line)
T2 sequence (Q9NR97 27-1041): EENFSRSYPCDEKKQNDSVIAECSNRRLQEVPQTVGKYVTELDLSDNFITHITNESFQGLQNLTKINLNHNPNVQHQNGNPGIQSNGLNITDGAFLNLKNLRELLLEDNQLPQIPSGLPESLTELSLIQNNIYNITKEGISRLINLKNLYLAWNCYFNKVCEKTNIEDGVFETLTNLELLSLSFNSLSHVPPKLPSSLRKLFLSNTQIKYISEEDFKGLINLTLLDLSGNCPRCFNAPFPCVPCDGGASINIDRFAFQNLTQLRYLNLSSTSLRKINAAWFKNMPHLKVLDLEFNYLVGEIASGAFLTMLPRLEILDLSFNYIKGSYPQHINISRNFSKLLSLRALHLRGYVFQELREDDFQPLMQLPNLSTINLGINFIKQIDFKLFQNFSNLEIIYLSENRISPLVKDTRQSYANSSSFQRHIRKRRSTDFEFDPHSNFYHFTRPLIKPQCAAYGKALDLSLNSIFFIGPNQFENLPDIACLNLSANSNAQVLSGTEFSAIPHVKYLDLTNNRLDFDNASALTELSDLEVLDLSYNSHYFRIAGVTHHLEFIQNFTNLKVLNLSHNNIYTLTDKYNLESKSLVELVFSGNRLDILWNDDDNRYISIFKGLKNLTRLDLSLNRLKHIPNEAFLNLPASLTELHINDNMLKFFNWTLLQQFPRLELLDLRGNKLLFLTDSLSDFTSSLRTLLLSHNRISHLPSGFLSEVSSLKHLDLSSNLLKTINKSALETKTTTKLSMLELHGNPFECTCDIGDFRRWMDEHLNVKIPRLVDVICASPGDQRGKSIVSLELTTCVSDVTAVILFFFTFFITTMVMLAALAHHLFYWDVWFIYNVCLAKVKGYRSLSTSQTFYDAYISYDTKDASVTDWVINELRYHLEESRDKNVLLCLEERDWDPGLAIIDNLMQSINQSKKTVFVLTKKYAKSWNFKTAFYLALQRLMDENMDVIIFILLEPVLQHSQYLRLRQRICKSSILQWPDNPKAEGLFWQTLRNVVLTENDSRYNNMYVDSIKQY
Method in brief: as §1

human TLR7 = target: T3, human TLR7 (Homo sapiens, UniProt Q9NYK1); test: TLR7 inhibition reporter assay (HEK-Blue cells, SEAP reporter, gardiquimod stimulation); details: HEK-Blue cells overexpressing human TLR7, SEAP reporter, gardiquimod 7.5 μM
T3 construct: host or cells: HEK-Blue cells (HEK293-derived reporter line)
T3 sequence (Q9NYK1 27-1049): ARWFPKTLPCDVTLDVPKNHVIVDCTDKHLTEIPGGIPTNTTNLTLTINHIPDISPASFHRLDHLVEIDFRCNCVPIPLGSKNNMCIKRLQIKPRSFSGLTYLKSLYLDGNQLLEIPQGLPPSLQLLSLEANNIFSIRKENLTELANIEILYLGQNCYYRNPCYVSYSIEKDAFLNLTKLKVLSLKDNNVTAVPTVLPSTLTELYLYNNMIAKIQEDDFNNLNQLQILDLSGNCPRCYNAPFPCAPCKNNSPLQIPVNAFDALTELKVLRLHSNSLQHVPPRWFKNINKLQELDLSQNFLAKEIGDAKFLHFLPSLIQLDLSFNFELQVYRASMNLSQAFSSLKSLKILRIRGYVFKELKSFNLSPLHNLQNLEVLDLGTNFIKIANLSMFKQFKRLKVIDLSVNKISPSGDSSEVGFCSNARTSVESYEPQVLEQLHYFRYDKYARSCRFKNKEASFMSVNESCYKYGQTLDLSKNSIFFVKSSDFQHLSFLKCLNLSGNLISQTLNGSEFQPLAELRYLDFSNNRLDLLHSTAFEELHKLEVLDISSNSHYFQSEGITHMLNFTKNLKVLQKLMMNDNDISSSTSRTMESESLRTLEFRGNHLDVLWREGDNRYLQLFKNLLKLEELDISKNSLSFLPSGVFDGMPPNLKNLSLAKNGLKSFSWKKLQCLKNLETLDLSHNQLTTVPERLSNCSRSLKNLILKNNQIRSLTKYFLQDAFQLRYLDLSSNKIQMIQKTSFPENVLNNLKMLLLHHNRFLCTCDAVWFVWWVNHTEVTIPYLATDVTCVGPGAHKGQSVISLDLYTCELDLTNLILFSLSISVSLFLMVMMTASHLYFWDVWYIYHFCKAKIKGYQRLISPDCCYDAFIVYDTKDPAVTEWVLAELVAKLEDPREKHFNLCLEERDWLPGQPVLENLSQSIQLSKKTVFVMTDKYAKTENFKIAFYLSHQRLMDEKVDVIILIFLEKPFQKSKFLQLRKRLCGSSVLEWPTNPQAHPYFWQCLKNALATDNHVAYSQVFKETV
Method in brief: as §1

Q: `CNC(=O)CN1CCC(c2ccc3[nH]c(-c4cc(OC)c5nccn5c4)c(C(C)C)c3c2)CC1` [Example 434, 2-(4-(3-isopropyl-2-(8-methoxyimidazo[1,2-a]pyridin-6-yl)-1H-indol-5-yl)piperidin-1-yl)-N-methylacetamide] was tested. Which pIC50 (human TLR9) did it give?
A: 6.00 to 7.00

Q: And the pIC50 (human TLR8)?
A: > 7.00

Q: And the pIC50 (human TLR7)?
A: > 7.00

Q: How did the pIC50 (human TLR9) turn out when `Cc1nc2cc(-c3[nH]c4ccc(C5CCN(C(=O)C[C@H](C)O)CC5)cc4c3C(C)C)ccn2n1` [Example 602, (S)-3-hydroxy-1-(4-(3-isopropyl-2-(2-methyl-[1,2,4]triazolo[1,5-a]pyridin-7-yl)-1H-indol-5-yl)piperidin-1-yl)butan-1-one] was run?
A: < 4.30

Q: And the pIC50 (human TLR8)?
A: < 5.51

Q: What about the pIC50 (human TLR7) of the same compound?
A: > 7.00

Q: With `Cc1cc(-c2[nH]c3ccc(C4CCN(C(=O)[C@@H]5C[C@@H](O)CN5)CC4)cc3c2C(C)C)cc2ncnn12` [Example 537, ((2S,4R)-4-hydroxypyrrolidin-2-yl)(4-(3-isopropyl-2-(5-methyl-[1,2,4]triazolo[1,5-a]pyridin-7-yl)-1H-indol-5-yl)piperidin-1-yl)methanone] as the compound, how does the pIC50 (human TLR9) read?
A: 4.30 to 6.00

Q: And the pIC50 (human TLR8)?
A: > 7.00

Q: And the pIC50 (human TLR7)?
A: > 7.00

Q: `CC(C)c1c(-c2ccc3c(N)n[nH]c3c2)[nH]c2ccc(C3CCNCC3)cc12` [Example 84, 6-(3-isopropyl-5-(piperidin-4-yl)-1H-indol-2-yl)-1H-indazol-3-amine] was tested. Which pIC50 (human TLR9) did it give?
A: 6.00 to 7.00

Q: And the pIC50 (human TLR8)?
A: 6.00 to 7.00

Q: What about the pIC50 (human TLR7) of the same compound?
A: 6.00 to 7.00

Q: Which results are given for `CC(C)c1c(-c2ccnc3[nH]ncc23)[nH]c2ccc(C3CCNCC3)c(F)c12` [Example 259, 4-(4-fluoro-3-isopropyl-5-(piperidin-4-yl)-1H-indol-2-yl)-1H-pyrazolo[3,4-b]pyridine]?
A: pIC50 (human TLR9): 6.00 to 7.00; pIC50 (human TLR8): > 7.00; pIC50 (human TLR7): > 7.00

Q: `CCc1c(-c2ccc3ncc(C)n3n2)[nH]c2ccc(C3CCNCC3)cc12` [Example 103, 6-(3-ethyl-5-(piperidin-4-yl)-1H-indol-2-yl)-3-methylimidazo[1,2-b]pyridazine] was tested. Which pIC50 (human TLR9) did it give?
A: 4.30 to 6.00

Q: What about the pIC50 (human TLR8) of the same compound?
A: 6.00 to 7.00

Q: And the pIC50 (human TLR7)?
A: 4.30 to 6.00

Q: Which results are given for `Cc1cc(-c2[nH]c3ccc(C4CCN(C(=O)CCN5CCOCC5)CC4)cc3c2C(C)C)cn2nnnc12` [Example 627, 1-(4-(3-isopropyl-2-(8-methyltetrazolo[1,5-a]pyridin-6-yl)-1H-indol-5-yl)piperidin-1-yl)-3-morpholinopropan-1-one]?
A: pIC50 (human TLR9): 4.30 to 6.00; pIC50 (human TLR8): > 7.00; pIC50 (human TLR7): > 7.00

Q: What does the source list for `CCc1c(-c2ccnc3[nH]nc(C)c23)[nH]c2ccc(C3CCNCC3)cc12` [Example 226, 4-(3-ethyl-5-(piperidin-4-yl)-1H-indol-2-yl)-3-methyl-1H-pyrazolo[3,4-b]pyridine]?
A: pIC50 (human TLR9): 6.00 to 7.00; pIC50 (human TLR8): > 7.00; pIC50 (human TLR7): > 7.00

Q: How did the pIC50 (human TLR9) turn out when `CC(C)c1c(-c2ccnc3[nH]ncc23)[nH]c2ccc(C3CCN(C(=O)C[C@H](C)N)CC3)cc12` [Example 637, (S)-3-amino-1-(4-(3-isopropyl-2-(1H-pyrazolo[3,4-b]pyridin-4-yl)-1H-indol-5-yl)piperidin-1-yl)butan-1-one] was run?
A: 4.30 to 6.00

Q: What about the pIC50 (human TLR8) of the same compound?
A: > 7.00

Q: And the pIC50 (human TLR7)?
A: > 7.00

Q: With `CC1CC(N2CCC(c3ccc4[nH]c(-c5ccnc6[nH]ncc56)c(C(C)C)c4c3)CC2)CCN1` (stereo not drawn) [Example 820, 4-(3-isopropyl-5-(2′-methyl-[1,4′-bipiperidin]-4-yl)-1H-indol-2-yl)-1H-pyrazolo[3,4-b]pyridine] as the compound, how does the pIC50 (human TLR9) read?
A: > 7.00

Q: And the pIC50 (human TLR8)?
A: > 7.00

Q: What about the pIC50 (human TLR7) of the same compound?
A: > 7.00

Q: How did the pIC50 (human TLR9) turn out when `Cc1cc(-c2[nH]c3ccc(C4CCN(C(=O)CN5CCC(F)(F)CC5)CC4)cc3c2C(C)C)cn2nnnc12` [Example 482, 2-(4,4-difluoropiperidin-1-yl)-1-(4-(3-isopropyl-2-(8-methyltetrazolo[1,5-a]pyridin-6-yl)-1H-indol-5-yl)piperidin-1-yl)ethan-1-one] was run?
A: < 4.30

Q: What about the pIC50 (human TLR8) of the same compound?
A: 6.00 to 7.00

Q: And the pIC50 (human TLR7)?
A: > 7.00

Q: With `CC(C)c1c(-c2ccc3nccn3c2)[nH]c2ccc(C3CCNCC3)c(F)c12` [Example 258, 6-(4-fluoro-3-isopropyl-5-(piperidin-4-yl)-1H-indol-2-yl)imidazo[1,2-a]pyridine] as the compound, how does the pIC50 (human TLR9) read?
A: 6.00 to 7.00

Q: And the pIC50 (human TLR8)?
A: > 7.00

Q: What about the pIC50 (human TLR7) of the same compound?
A: > 7.00

Q: With `CNC(=O)c1cn2cc(-c3[nH]c4ccc(C5CCN(C(=O)CN(C)C)CC5)cc4c3C(C)C)cc(C)c2n1` [Example 495, 6-(5-(1-(dimethylglycyl)piperidin-4-yl)-3-isopropyl-1H-indol-2-yl)-N,8-dimethylimidazo[1,2-a] pyridine-2-carboxamide] as the compound, how does the pIC50 (human TLR9) read?
A: 6.00 to 7.00

Q: And the pIC50 (human TLR8)?
A: > 7.00

Q: And the pIC50 (human TLR7)?
A: > 7.00

Q: With `COc1cc(-c2[nH]c3ccc(C4CCN(CCS(C)(=O)=O)CC4)cc3c2C(C)C)nn2ncnc12` [Example 782, 6-(3-isopropyl-5-(1-(2-(methylsulfonyl)ethyl)piperidin-4-yl)-1H-indol-2-yl)-8-methoxy-[1,2,4]triazolo[1,5-b]pyridazine] as the compound, how does the pIC50 (human TLR9) read?
A: 4.30 to 6.00

Q: What about the pIC50 (human TLR8) of the same compound?
A: > 7.00

Q: And the pIC50 (human TLR7)?
A: > 7.00
